Assay: Release of nicotine and vanillin from devices in artificial saliva
Format: physicochemical
Conditions: device with 50 w-% PVA / 50 w-% PLA, ca. 20 mg
Procedure: Three devices of each polymer matrix formulation were chosen for drug release experiments. Prior to the experiments, the dimensions and weight of the capsules were recorded. In the drug release experiments, the capsules were immersed in 2 mL of artificial saliva, which itself consists of a solution of 16.8 mM Na2HPO4, 1.4 mM KH2PO4, and 137 mM NaCl salts dissolved in purified water at pH 6.75. The solution was kept at 37° C. and under constant stirring. Once a day, 150 μL of solution was withdrawn from each sample to measure the amount of released drug in a high-performance liquid chromatography apparatus (HPLC). An equal amount of solution was added after each withdrawal to keep the total volume constant. The experiment was ceased between 35 and 42 days, due to devices turning red resulting from paracetamol degradation, or when all the drug was deemed to be released.
The release of nicotine and vanillin was measured similarly as in Examples 1 and 2.

SMILES	cumulative release from device (day 2) [µg]	cumulative release from device (day 14)	loading degree in device [w-%]	cumulative release from device (day 4)	cumulative release from device (day 7) [µg]
CN1CCCC1c1cccnc1 (stereo not drawn) [Nicotine, nicotine]	6	ca. 7 μg	0.04		
COc1cc(C=O)ccc1O [Vanillin, vanillin]			0.32	ca. 50 μg	65

From patent US20220233435A1 (priority 2019, published 2022)
